Experimental data as given in patent US11739089B2, “Acetamido-phenyltetrazole derivatives and methods of using the same” (Athenex, Inc., priority 2020, dated 2023).
Read-outs that look alike come from different tables or passages of the source.

Experiments:
CYP3A4 = CYP3A4 (Homo sapiens (Human), UniProt P08684); assay: CYP3A4 inhibitory activity: Luciferin-IPA (P450-Glo) assay with human liver microsome
Method: Cytochrome P450 activity may be determined by a P450-Glo™ assay (Promega) with human liver microsomes wherein the compounds of the present disclosure are dosed at different concentrations in buffer and incubated. Dose-response curve and IC50 data may be obtained and fit to a nonlinear regression model using GraphPad Prism software (v6.0).
The standard final Compound concentrations were 37, 111, 333, 1000, and 3000 nM. 12.5 μL of the Compound dilutions were transferred to a white 96-well plate. 1450 μL (enough for a whole plate) of 4× assay buffer (400 mM potassium phosphate buffer (10 mL 1M potassium phosphate buffer: 8.02 mL 1M K2HPO4+1.98 mL 1M KH2PO4 (1.4 g K2HPO4+0.27 g KH2PO4 in 10 mL H2O), 32 μM Luciferin-IPA (Promega V9002)) 580 μl of 1 M K3PO4 buffer, 870 μL H2O, 14 μL of 3 mM Luciferin-IPA, and 18 μL of human liver microsome (Sigma M0317-1VL) was made. 12.5 μL of 4× assay buffer was added to each well. For the well of blank control, 12.5 μL of 4× assay buffer without liver microsome was added. The plate was incubated at room temperature for 15 minutes. 2.75 mL NADPH buffer was made as follows: 2.42 mL H2O, 275 μL solution A and 55 μL solution B (NADPH regeneration system, Promega V9510). 25 μL of the buffer was added to each well. The plates were incubated at 37° C. for 11 minutes. 50 μL of luciferin detection reagent (Promega V9002) was added and the plates were incubated at room temperature for 5 minutes. The plate was read with a luminometer.
The dose-response curve and IC50 were obtained by fitting data to nonlinear regression model using GraphPad Prism software (v6.0).

P-glycoprotein = P-glycoprotein (Homo sapiens (Human), UniProt P08183); assay: P-glycoprotein inhibitory activity: MTT cell growth assay in P-gp overexpressing MES-SA/DX5 cells with docetaxel or paclitaxel; assay type: cell-based; conditions: 3 days, with 100 nM docetaxel or 200 nM paclitaxel, MTT readout
Chain of P-glycoprotein (P08183 whole entry): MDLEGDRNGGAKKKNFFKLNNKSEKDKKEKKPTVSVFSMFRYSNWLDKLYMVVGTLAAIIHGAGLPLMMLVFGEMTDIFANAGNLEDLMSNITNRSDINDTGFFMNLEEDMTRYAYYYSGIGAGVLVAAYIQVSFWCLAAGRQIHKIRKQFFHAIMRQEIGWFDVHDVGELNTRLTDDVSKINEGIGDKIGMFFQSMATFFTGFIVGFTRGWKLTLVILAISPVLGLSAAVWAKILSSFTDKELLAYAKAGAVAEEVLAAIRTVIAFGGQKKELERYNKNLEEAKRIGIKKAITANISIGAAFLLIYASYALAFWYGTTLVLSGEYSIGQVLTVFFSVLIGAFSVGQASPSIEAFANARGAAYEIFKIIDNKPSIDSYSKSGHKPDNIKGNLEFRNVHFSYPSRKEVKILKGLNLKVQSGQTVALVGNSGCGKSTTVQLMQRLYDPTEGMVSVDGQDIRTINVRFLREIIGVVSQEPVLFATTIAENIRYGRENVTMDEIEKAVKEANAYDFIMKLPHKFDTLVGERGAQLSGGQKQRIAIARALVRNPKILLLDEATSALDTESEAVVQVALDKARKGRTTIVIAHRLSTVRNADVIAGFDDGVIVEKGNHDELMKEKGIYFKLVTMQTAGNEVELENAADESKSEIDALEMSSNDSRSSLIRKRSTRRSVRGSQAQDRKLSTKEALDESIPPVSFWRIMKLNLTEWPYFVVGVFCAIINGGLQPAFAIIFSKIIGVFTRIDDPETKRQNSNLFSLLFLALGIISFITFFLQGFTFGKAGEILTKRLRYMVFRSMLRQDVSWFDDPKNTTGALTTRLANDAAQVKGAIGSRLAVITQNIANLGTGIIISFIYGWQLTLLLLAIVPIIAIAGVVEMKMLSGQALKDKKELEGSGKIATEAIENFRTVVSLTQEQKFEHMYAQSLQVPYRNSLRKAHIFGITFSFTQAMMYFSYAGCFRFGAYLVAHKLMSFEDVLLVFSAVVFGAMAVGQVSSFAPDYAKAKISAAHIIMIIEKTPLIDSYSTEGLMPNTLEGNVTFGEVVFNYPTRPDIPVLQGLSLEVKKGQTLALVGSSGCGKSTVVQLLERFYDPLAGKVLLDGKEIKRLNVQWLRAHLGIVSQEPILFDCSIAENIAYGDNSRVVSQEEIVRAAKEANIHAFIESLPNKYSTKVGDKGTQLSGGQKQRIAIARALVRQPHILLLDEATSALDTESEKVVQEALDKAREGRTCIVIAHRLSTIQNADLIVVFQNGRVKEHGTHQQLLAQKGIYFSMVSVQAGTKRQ
Method: P-glycoprotein inhibitory activity may be determined by an assay wherein P-glycoprotein overexpressed cell lines are treated with increasing concentrations of a compound of the present disclosure and therapeutic agent for three days, followed by an MTT assay.
Cell growth percentage may be calculated with the following equation: Cell growth percentage=(T−T0)/(C−T0)×100%, wherein T is OD of the test well exposure to Compound; C is OD of the control well without Compound treatment; and T0 is OD at time zero.
A P-glycoprotein overexpressing cell line derived from the human uterine sarcoma cell line MES-SA (i.e., MES-SA/DX5 cells (ATCC)) was seeded by stepwise exposures to increasing concentrations of doxorubicin, in a 96-well plate at 6,500 cells/100 μL media (McCoy's 5A+10% FBS) in each well. The cells were incubated overnight at 37° C. 5% CO2. Compounds were diluted in a separate 96-well plate to yield 11× of final concentration (final Compound concentrations were 0, 5, 20, 80, 320, and 1280 nM and the final docetaxel concentration was 100 nM or the final paclitaxel concentration was 200 nM). DMSO was used as a negative control and known P-glycoprotein inhibitor, encequidar methane sulfonic acid monohydrate (HM30181A), was used as a positive control. 10 μL of the 11× dilutions was added to the appropriate well, P-glycoprotein inhibition wells comprised Compound+docetaxel (or Compound+paclitaxel). The compound toxicity wells comprised 1280 nM Compound+10 μL of culture media. Treated the cells were incubated for 3 days at 37° C. 5% CO2.
To value (reflecting the starting number of cells upon Compound treatment) of 3 wells of cells was determined by performing the following steps 1-4 as described below.
1. 10 μL MTT (5 mg/mL in PBS) was added to each well and incubated for 1.5 hours at 37° C. 5% CO2.
2. Culture media was removed and 100 μL of DMSO was added to each well.
3. The plate was gently shook until all purple MTT formazan crystals were dissolved. OD540 was then measured using microplate reader.
4. Cell growth percentage was calculated with the following equation: Cell growth percentage=(T−T0)/(C−T0)×100%, wherein T is OD of the test well exposure to Compound; C is OD of the control well without Compound treatment; and T0 is OD at time zero.

Chain of CYP3A4 (P08684 whole entry): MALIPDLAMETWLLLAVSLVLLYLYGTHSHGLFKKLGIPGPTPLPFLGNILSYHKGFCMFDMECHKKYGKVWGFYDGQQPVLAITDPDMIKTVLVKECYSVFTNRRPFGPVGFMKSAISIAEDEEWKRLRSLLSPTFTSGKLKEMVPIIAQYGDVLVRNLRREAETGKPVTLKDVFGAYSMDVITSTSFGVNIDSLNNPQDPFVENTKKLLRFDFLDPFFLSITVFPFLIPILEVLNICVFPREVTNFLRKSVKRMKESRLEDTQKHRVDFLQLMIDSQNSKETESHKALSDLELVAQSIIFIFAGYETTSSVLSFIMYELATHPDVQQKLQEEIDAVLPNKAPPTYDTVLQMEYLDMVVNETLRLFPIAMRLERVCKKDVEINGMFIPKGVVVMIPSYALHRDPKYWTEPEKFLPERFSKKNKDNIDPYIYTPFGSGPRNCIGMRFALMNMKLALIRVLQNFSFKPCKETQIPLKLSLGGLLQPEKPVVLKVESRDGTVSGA

Compound	IC50 (CYP3A4; human, microsomes, 11 min) [nM]	EC50 (P-glycoprotein) [nM]	IC50 (CYP3A4) [nM]
COc1cc(NC(=O)c2cc(=O)c3ccccc3o2)c(-c2nnn(-c3ccc(CCN4CCn5cncc5C4)cc3)n2)cc1OC [Compound 1, A-(2-(2-(4-(2-(5,6-Dihydroimidazo[1,5-a]pyrazin-7(8H)-yl)ethyl)phenyl)-2H-tetrazol-5-yl)-4,5-dimethoxyphenyl)-4-oxo-4H-chromene-2-carboxamide]	> 1000	> 1000	–
COc1cc(NC(=O)c2cnc3ccccc3c2)c(-c2nnn(-c3ccc(CCN4CCc5cnccc5C4)cc3)n2)cc1OC [Compound 2, N-(2-(2-(4-(2-(3,4-Dihydro-2,6-naphthyridin-2(1H)-yl)ethyl)phenyl)-2H-tetrazol-5-yl)-4,5-dimethoxyphenyl)quinoline-3-carboxamide]	–	100 to 250	100 to 250
COc1cc(NC(=O)c2cc(=O)c3ccccc3o2)c(-c2nnn(-c3ccc(CCN(Cc4cccc(-n5ccnc5)c4)Cc4ccc5c(cnn5C)c4)cc3)n2)cc1OC [Compound 3, N-(2-(2-(4-(2-((3-(1H-Imidazol-1-yl)benzyl)((1-methyl-1H-indazol-5-yl)methyl)amino)ethyl)phenyl)-2H-tetrazol-5-yl)-4,5-dimethoxyphenyl)-4-oxo-4H-chromene-2-carboxamide]	–	> 1000	500 to 1000
COc1cc(NC(=O)c2cnc3ccccc3c2)c(-c2nnn(-c3ccc(CCN(Cc4cccc(-n5ccnc5)c4)Cc4ccc5c(cnn5C)c4)cc3)n2)cc1OC [Compound 4, N-(2-(2-(4-(2-((3-(1H-Imidazol-1-yl)benzyl)((1-methyl-1H-indazol-5-yl)methyl)amino)ethyl)phenyl)-2H-tetrazol-5-yl)-4,5-dimethoxyphenyl)quinoline-3-carboxamide]	–	500 to 1000	500 to 1000
COc1cc(NC(=O)c2cc(=O)c3ccc(C)cc3o2)c(-c2nnn(-c3ccc(CCN(Cc4cccc(-n5ccnc5)c4)Cc4ccc5c(cnn5C)c4)cc3)n2)cc1OC [Compound 5, N-(2-(2-(4-(2-((3-(1H-Imidazol-1-yl)benzyl)((1-methyl-1H-indazol-5-yl)methyl)amino)ethyl)phenyl)-2H-tetrazol-5-yl)-4,5-dimethoxyphenyl)-7-methyl-4-oxo-4H-chromene-2-carboxamide]	> 1000	> 1000	–
COc1cc(NC(=O)c2cc(=O)c3ccccc3o2)c(-c2nnn(-c3ccc(CCN4CCc5ccncc5C4)cc3)n2)cc1OC [Compound 6, N-(2-(2-(4-(2-(3,4-Dihydro-2,7-naphthyridin-2(1H)-yl)ethyl)phenyl)-2H-tetrazol-5-yl)-4,5-dimethoxyphenyl)-4-oxo-4H-chromene-2-carboxamide]	> 1000	100 to 250	–
COc1cc(NC(=O)c2cc(=O)c3ccccc3o2)c(-c2nnn(-c3ccc(CCN4CCc5cnccc5C4)cc3)n2)cc1OC [Compound 7, N-(2-(2-(4-(2-(3,4-Dihydro-2,6-naphthyridin-2(1H)-yl)ethyl)phenyl)-2H-tetrazol-5-yl)-4,5-dimethoxyphenyl)-4-oxo-4H-chromene-2-carboxamide]	–	100 to 250	500 to 1000
COc1cc(NC(=O)c2cc(=O)c3ccccc3o2)c(-c2nnn(-c3ccc(CCN4CCc5cc(-n6ccnc6)ccc5C4)cc3)n2)cc1OC [Compound 8, N-(2-(2-(4-(2-(6-(1H-Imidazol-1-yl)-3,4-dihydroisoquinolin-2(1H)-yl)ethyl)phenyl)-2H-tetrazol-5-yl)-4,5-dimethoxyphenyl)-4-oxo-4H-chromene-2-carboxamide]	–	> 1000	100 to 250
COc1cc(NC(=O)c2cnc3ccccc3n2)c(-c2nnn(-c3ccc(CCN4CCc5cnccc5C4)cc3)n2)cc1OC [Compound 9, N-(2-(2-(4-(2-(3,4-Dihydro-2,6-naphthyridin-2(1H)-yl)ethyl)phenyl)-2H-tetrazol-5-yl)-4,5-dimethoxyphenyl)quinoxaline-2-carboxamide]	–	> 1000	500 to 1000
COc1cc(NC(=O)c2cc(=O)c3ccccc3o2)c(-c2nnn(-c3ccc(CCN4CCc5ccc(-n6ccnc6)cc5C4)cc3)n2)cc1OC [Compound 10, N-(2-(2-(4-(2-(7-(1H-Imidazol-1-yl)-3,4-dihydroisoquinolin-2(1H)-yl)ethyl)phenyl)-2H-tetrazol-5-yl)-4,5-dimethoxyphenyl)-4-oxo-4H-chromene-2-carboxamide]	–	> 1000	250 to 500
COc1cc(NC(=O)c2cc(=O)c3ccccc3o2)c(-c2nnn(-c3ccc(CCN4CCc5cnccc5C4)cc3)n2)cc1OCc1ccccc1 [Compound 12, N-(4-(Benzyloxy)-2-(2-(4-(2-(3,4-dihydro-2,6-naphthyridin-2(1H)-yl)ethyl)phenyl)-2H-tetrazol-5-yl)-5-methoxyphenyl)-4-oxo-4H-chromene-2-carboxamide]	> 1000	< 100	–
COc1cc(NC(=O)c2cnc3ccccc3c2)c(-c2nnn(-c3ccc(CCN4CCc5cnccc5C4)cc3)n2)cc1OCc1ccccc1 [Compound 13, N-(4-(Benzyloxy)-2-(2-(4-(2-(3,4-dihydro-2,6-naphthyridin-2(1H)-yl)ethyl)phenyl)-2H-tetrazol-5-yl)-5-methoxyphenyl)quinoline-3-carboxamide]	–	< 100	500 to 1000
COc1cc(NC(=O)c2cc(=O)c3ccccc3o2)c(-c2nnn(-c3ccc(CCN4CCc5cc(OC)c(OCCn6ccnc6)cc5C4)cc3)n2)cc1OC [Compound 14, N-(2-(2-(4-(2-(7-(2-(1H-Imidazol-1-yl)ethoxy)-6-methoxy-3,4-dihydroisoquinolin-2(1H)-yl)ethyl)phenyl)-2H-tetrazol-5-yl)-4,5-dimethoxyphenyl)-4-oxo-4H-chromene-2-carboxamide]	–	> 1000	–
COC(=O)c1ccc(-c2nnn(-c3ccc(CCN(C)Cc4ccc5c(cnn5C)c4)cc3)n2)c(NC(=O)c2cc(=O)c3ccccc3o2)c1 [Compound 15, Methyl 4-(2-(4-(2-(methyl((1-methyl-1H-indazol-5-yl)methyl)amino)ethyl)phenyl)-2H-tetrazol-5-yl)-3-(4-oxo-4H-chromene-2-carboxamido)benzoate]	–	< 100	> 1000
COc1cc(NC(=O)c2cnc3ccccc3c2)c(-c2nnn(-c3ccc(CCN4CCc5cnccc5C4)cc3)n2)cc1OCc1ccccc1 [Compound 17, N-(4-(Benzyloxy)-2-(2-(4-(2-(3,4-dihydro-2,6-naphthyridin-2(1H)-yl)ethyl)phenyl)-2H-tetrazol-5-yl)-5-methoxyphenyl)quinoline-3-carboxamide]	500 to 1000	–	–
COc1cc(NC(=O)c2cc(=O)c3ccccc3o2)c(-c2nnn(-c3ccc(CCN4CCn5cncc5C4)cc3)n2)cc1OCc1ccccc1 [Compound 18, N-(4-(Benzyloxy)-2-(2-(4-(2-(5,6-dihydroimidazo[1,5-a]pyrazin-7(8H)-yl)ethyl)phenyl)-2H-tetrazol-5-yl)-5-methoxyphenyl)-4-oxo-4H-chromene-2-carboxamide]	> 1000	< 100	–
COc1cc2c(cc1OC)CN(CCc1ccc(-n3nnc(-c4cc(OC)c(OC)cc4NC(=O)c4cc(=O)c5cc(-c6ccncc6)ccc5o4)n3)cc1)CC2 [Compound 19, N-(2-(2-(4-(2-(6,7-Dimethoxy-3,4-dihydroisoquinolin-2(1H)-yl)ethyl)phenyl)-2H-tetrazol-5-yl)-4,5-dimethoxyphenyl)-4-oxo-6-(pyridin-4-yl)-4H-chromene-2-carboxamide]	> 1000	> 1000	–
COc1cc2c(cc1OC)CN(CCc1ccc(NC(=O)c3cc(OC)c(OC)cc3NC(=O)c3cnc4ccccc4c3)cc1)CC2 [Tariquidar, reference compound]	–	< 100	–
